Data taken from patent publication US20030022158A1, “Peptides from the TT virus sequence and monospecific antibodies binding to the TT virus” (priority 1999, published 2003).

How the values were obtained:
[1] = tested on: human IgG antibodies in human serum samples; assay: EIA of human antibody reactivities to overlapping synthetic peptides of TTV ORF1 and ORF2 (Tables 2 and 3); type: binding; details: for optical density (OD) at 405 nm: serum diluted 1:100, OD over 0.500 considered positive; for optical density (OD) at 405 nm, EIA reactivity of human serum sample 1: serum sample 1, negative for TTV DNA by PCR; for optical density (OD) at 405 nm, EIA reactivity of human serum sample 1 / optical density (OD) at 405 nm, EIA reactivity of human serum sample 2 / optical density (OD) at 405 nm, EIA reactivity of human serum sample 3 / optical density (OD) at 405 nm, EIA reactivity of human serum sample 4 / optical density (OD) at 405 nm, EIA reactivity of human serum sample 5 / optical density (OD) at 405 nm, EIA reactivity of human serum sample 6 / optical density (OD) at 405 nm, EIA reactivity of human serum sample 7 / optical density (OD) at 405 nm, EIA reactivity of human serum sample 9 / optical density (OD) at 405 nm, EIA reactivity of human serum sample 11 / optical density (OD) at 405 nm, EIA reactivity of human serum sample 18 / optical density (OD) at 405 nm, EIA reactivity of human serum sample 36 / optical density (OD) at 405 nm, EIA reactivity of human serum sample 48 / optical density (OD) at 405 nm, EIA reactivity of human serum sample 98 / optical density (OD) at 405 nm, EIA reactivity of human serum sample 110 / optical density (OD) at 405 nm, EIA reactivity of human serum sample 155 / optical density (OD) at 405 nm, EIA reactivity of human serum sample 157: serum 1:100, peptide coated 10 μg/ml, OD over 0.500 positive; for optical density (OD) at 405 nm, EIA reactivity of human serum sample 2: serum sample 2, negative for TTV DNA by PCR; for optical density (OD) at 405 nm, EIA reactivity of human serum sample 3: serum sample 3, negative for TTV DNA by PCR; for optical density (OD) at 405 nm, EIA reactivity of human serum sample 4: serum sample 4, negative for TTV DNA by PCR; for optical density (OD) at 405 nm, EIA reactivity of human serum sample 5: serum sample 5, negative for TTV DNA by PCR; for optical density (OD) at 405 nm, EIA reactivity of human serum sample 6: serum sample 6, negative for TTV DNA by PCR; for optical density (OD) at 405 nm, EIA reactivity of human serum sample 7: serum sample 7, negative for TTV DNA by PCR; for optical density (OD) at 405 nm, EIA reactivity of human serum sample 9: serum sample 9, positive for TTV DNA by PCR; for optical density (OD) at 405 nm, EIA reactivity of human serum sample 11: serum sample 11, negative for TTV DNA by PCR; for optical density (OD) at 405 nm, EIA reactivity of human serum sample 18: serum sample 18, positive for TTV DNA by PCR; for optical density (OD) at 405 nm, EIA reactivity of human serum sample 36: serum sample 36, positive for TTV DNA by PCR; for optical density (OD) at 405 nm, EIA reactivity of human serum sample 48: serum sample 48, positive for TTV DNA by PCR; for optical density (OD) at 405 nm, EIA reactivity of human serum sample 98: serum sample 98, positive for TTV DNA by PCR; for optical density (OD) at 405 nm, EIA reactivity of human serum sample 110: serum sample 110, positive for TTV DNA by PCR; for optical density (OD) at 405 nm, EIA reactivity of human serum sample 155: serum sample 155, positive for TTV DNA by PCR; for optical density (OD) at 405 nm, EIA reactivity of human serum sample 157: serum sample 157, positive for TTV DNA by PCR
Source text: Overlapping peptides (18 amino acids in length containing an 8 amino acid overlap) corresponding to regions of the ORFI and ORF2 of TTV (TABLE 1; Genebank accession no AB008394) were produced by a multiple peptide synthesizer (Syro, Syntex, Germany) using standard Fmoc chemistry (Sallberg et al., Immunology Letters, 30:59 68 (1991), herein expressly incorporated by reference in its entirety).
(§1) The EIAs used to identify which peptides interacted with human sera followed protocols known in the art. (See Zhang et al., J Gen Virol, 78:2735-2746 (1997), herein expressly incorporated by reference in its entirety). Briefly, microplates (Nunc, Denmark) were coated for 48 hours with synthetic peptides at a concentration of 10 μg/ml in 0.05M sodium carbonate buffer pH 9.6. After blocking for 2 hours at room temperature with phosphate buffered saline containing 1% bovine serum albumin, 2% goat serum and 0.05% Tween 20 (dilution buffer) the plates were incubated with human sera diluted 1:100 in dilution buffer. Bound human IgG was detected by incubation with anti-human IgG antibodies conjugated to alkaline phosphatase (Sigma Chemicals, St. Louis, Mo.). The plates were developed by the addition of […] (Sigma) and the optical densities were determined at 405 nm.

[2] = tested on: human antibodies in human serum samples; assay: EIA reactivities of three human serum samples with deletion and alanine substitution analogues of SEQ ID NO: 1 (Table 6); type: binding; details: positive = more than 50% of the reactivity of the original peptide
Protocol: as §1
The reactivity to the TATTTTYAYPGTNRPPV (SEQ ID NO: 1) peptide was further characterized by mapping the reactivity of deletion and substitution peptide analogues.

[3] = human serum sample 1, negative for TTV DNA by PCR
[4] = human serum sample 2, negative for TTV DNA by PCR
[5] = human serum sample 3, negative for TTV DNA by PCR
[6] = human serum sample 4, negative for TTV DNA by PCR
[7] = human serum sample 5, negative for TTV DNA by PCR
[8] = human serum sample 6, negative for TTV DNA by PCR
[9] = human serum sample 7, negative for TTV DNA by PCR
[10] = human serum sample 9, positive for TTV DNA by PCR
[11] = human serum sample 11, negative for TTV DNA by PCR
[12] = human serum sample 18, positive for TTV DNA by PCR
[13] = human serum sample 36, positive for TTV DNA by PCR
[14] = human serum sample 48, positive for TTV DNA by PCR
[15] = human serum sample 98, positive for TTV DNA by PCR
[16] = human serum sample 110, positive for TTV DNA by PCR
[17] = human serum sample 155, positive for TTV DNA by PCR
[18] = human serum sample 157, positive for TTV DNA by PCR

Substance | optical density (OD) at 405 nm [1, 3] [OD] | optical density (OD) at 405 nm [1, 4] [OD] | optical density (OD) at 405 nm [1, 5] [OD] | optical density (OD) at 405 nm [1, 6] [OD] | optical density (OD) at 405 nm [1, 7] [OD] | optical density (OD) at 405 nm [1, 8] [OD] | optical density (OD) at 405 nm [1, 9] [OD] | optical density (OD) at 405 nm [1, 10] [OD] | optical density (OD) at 405 nm [1, 11] [OD] | optical density (OD) at 405 nm [1, 12] [OD] | optical density (OD) at 405 nm [1, 13] [OD] | optical density (OD) at 405 nm [1, 14] [OD] | optical density (OD) at 405 nm [1, 15] [OD] | optical density (OD) at 405 nm [1, 16] [OD] | optical density (OD) at 405 nm [1, 17] [OD] | optical density (OD) at 405 nm [1, 18] [OD] | optical density (OD) at 405 nm, EIA reactivity of human serum sample 1 [1] [OD] | OD at 405 nm, reactivity of human serum sample P4 [2] [OD] | OD at 405 nm, reactivity of human serum sample P7 [2] [OD] | OD at 405 nm, reactivity of human serum sample P36 [2] [OD] | also measured
2: overlapping synthetic peptide of TTV ORF1 (YAYPGTNRPPV) [compound 2] | 0.08 | 0.08 | 0.07 | 0.11 | 0.07 | 0.09 | 0.08 | 0.07 | 0.14 | 0.06 | 0.08 | 0.10 | 0.05 | 0.08 | 0.07 | 0.08 | 0.10 | 0.647 | 1.546 | 0.677 | optical density (OD) at 405 nm, EIA reactivity of human serum sample 2 [1]: 0.11 OD; optical density (OD) at 405 nm, EIA reactivity of human serum sample 3 [1]: 0.11 OD; optical density (OD) at 405 nm, EIA reactivity of human serum sample 4 [1]: 0.10 OD; optical density (OD) at 405 nm, EIA reactivity of human serum sample 5 [1]: 0.08 OD; optical density (OD) at 405 nm, EIA reactivity of human serum sample 6 [1]: 0.12 OD; optical density (OD) at 405 nm, EIA reactivity of human serum sample 7 [1]: 0.09 OD; optical density (OD) at 405 nm, EIA reactivity of human serum sample 9 [1]: 0.08 OD; optical density (OD) at 405 nm, EIA reactivity of human serum sample 11 [1]: 0.14 OD; optical density (OD) at 405 nm, EIA reactivity of human serum sample 18 [1]: 0.08 OD; optical density (OD) at 405 nm, EIA reactivity of human serum sample 36 [1]: 0.08 OD; optical density (OD) at 405 nm, EIA reactivity of human serum sample 48 [1]: 0.08 OD; optical density (OD) at 405 nm, EIA reactivity of human serum sample 98 [1]: 0.08 OD; optical density (OD) at 405 nm, EIA reactivity of human serum sample 110 [1]: 0.09 OD; optical density (OD) at 405 nm, EIA reactivity of human serum sample 155 [1]: 0.14 OD; optical density (OD) at 405 nm, EIA reactivity of human serum sample 157 [1]: 0.13 OD
20: overlapping synthetic peptide of TTV ORF1 (TATTTTYAYPGTNRPP) [compound 20] | 0.07 | 0.06 | 0.06 | 0.07 | 0.06 | 0.08 | 0.08 | 0.08 | 0.11 | 0.07 | 0.07 | 0.09 | 0.04 | 0.06 | 0.09 | 0.10 | 0.09 | 0.096 | 0.144 | 0.086 | optical density (OD) at 405 nm, EIA reactivity of human serum sample 2 [1]: 0.10 OD; optical density (OD) at 405 nm, EIA reactivity of human serum sample 3 [1]: 0.09 OD; optical density (OD) at 405 nm, EIA reactivity of human serum sample 4 [1]: 0.08 OD; optical density (OD) at 405 nm, EIA reactivity of human serum sample 5 [1]: 0.07 OD; optical density (OD) at 405 nm, EIA reactivity of human serum sample 6 [1]: 0.10 OD; optical density (OD) at 405 nm, EIA reactivity of human serum sample 7 [1]: 0.07 OD; optical density (OD) at 405 nm, EIA reactivity of human serum sample 9 [1]: 0.10 OD; optical density (OD) at 405 nm, EIA reactivity of human serum sample 11 [1]: 0.09 OD; optical density (OD) at 405 nm, EIA reactivity of human serum sample 18 [1]: 0.10 OD; optical density (OD) at 405 nm, EIA reactivity of human serum sample 36 [1]: 0.08 OD; optical density (OD) at 405 nm, EIA reactivity of human serum sample 48 [1]: 0.08 OD; optical density (OD) at 405 nm, EIA reactivity of human serum sample 98 [1]: 0.08 OD; optical density (OD) at 405 nm, EIA reactivity of human serum sample 110 [1]: 0.10 OD; optical density (OD) at 405 nm, EIA reactivity of human serum sample 155 [1]: 0.14 OD; optical density (OD) at 405 nm, EIA reactivity of human serum sample 157 [1]: 0.16 OD
21: overlapping synthetic peptide of TTV ORF1 (TATTTTYAYPGTNRP) [compound 21] | 0.00 | 0.00 | 0.00 | 0.00 | 0.00 | 0.00 | 0.00 | 0.00 | 0.00 | 0.00 | 0.00 | 0.00 | 0.00 | 0.00 | 0.00 | 0.00 |  | 0.100 | 0.099 | 0.078 | 
